Source: patent US20110212977A1, “P70 S6 KINASE INHIBITOR AND MTOR INHIBITOR COMBINATION THERAPY” (ELI LILLY AND COMPANY, priority 2008, published 2011)

System: U87MG human glioblastoma cells
Experiment: Determination of In Vivo Efficacy: U87MG human glioblastoma xenograft tumor volume;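 also: subcutaneous flank xenografts in female athymic nude mice, tumor volume measured twice weekly, log volumes compared with the combined-vehicle control group by repeated measures ANOVA at each time point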
Conditions: for Tumor volume Mean / Signif. (difference in tumor volume relative to the vehicle group): 3 mg/kg of each agent orally once daily; for Tumor volume Mean: U87MG xenograft in nude mice
Procedure: The vehicle group is given the 2 vehicles (NaCMC Tween 80 and 35% PEG300/10% HPBCD/10% PS80 in H2O) in combination (0.1 mL of each). Treatment is continued for 23 days. Tumor volumes are measured using standard technique twice weekly and reported. Tumor size and body weight are recorded and analyzed bi-weekly. Tumor volume is estimated by using the formula: v=l×w^2×0.536 where l=larger of measured diameter and w=smaller of perpendicular diameter. The analysis uses SAS software version 8.2 (SAS Institutes Inc, Cary, N.C.) to analyze the log tumor volume data using a repeated measures ANOVA model with a spatial power covariance structure. For each time point taken, treatment groups are compared to the vehicle control group. Tumor volumes are given as means±standard errors for each treatment group determined from a repeated measures ANOVA on each group.
The data in the column headed Signif. indicates whether the difference relative to the vehicle group is statistically significant: NS=Not Significant (p>0.05); *=0.01<p≦0.05; **=0.001<<p≦0.01; ***=p≦0.001.

Compound | Tumor volume Mean (Day 7) | Tumor volume Mean (Day 10) | Tumor volume Mean (Day 13) | Tumor volume Mean (Day 16) | Tumor volume Mean (Day 20) | Tumor volume Mean (Day 23) | Tumor volume Mean (Day 27) | Tumor volume Mean (Day 30) | Tumor volume Mean (Day 34) | Statistical difference from the vehicle group (in words) (whole study (throughout), 3 mg/kg orally once daily) | Signif. (difference in tumor volume relative to the vehicle group) (Day 7) | Signif. (difference in tumor volume relative to the vehicle group) (Day 10) | Signif. (difference in tumor volume relative to the vehicle group) (Day 13) | Signif. (difference in tumor volume relative to the vehicle group) (Day 16) | Signif. (difference in tumor volume relative to the vehicle group) (Day 20) | Signif. (difference in tumor volume relative to the vehicle group) (Day 23) | Signif. (difference in tumor volume relative to the vehicle group) (Day 27) | Signif. (difference in tumor volume relative to the vehicle group) (Day 30) | Signif. (difference in tumor volume relative to the vehicle group) (Day 34)
CO[C@H]1CC2CC[C@@H](C)[C@@](O)(O2)C(=O)C(=O)N2CCCC[C@H]2C(=O)O[C@H]([C@H](C)C[C@@H]2CC[C@@H](O)[C@H](OC)C2)CC(=O)[C@H](C)/C=C(\C)[C@@H](O)[C@@H](OC)C(=O)[C@H](C)C[C@H](C)/C=C/C=C/C=C/1C [Rapamycin, rapamycin, reference compound] | 43.1 | 65.6 | 121.9 | 220.4 | 311.5 | 606.0 | 879.7 | 1160.8 | 1429.5 | not significantly different | – | – | – | – | – | – | – | – | –
Cn1cc(-c2ccc(F)c(C(F)(F)F)c2)nc1C1CCN(c2ncnc3[nH]ncc23)CC1 [p70 S6 Kinase Inhibitor] | 43.8 | 79.6 | 118.7 | 159.0 | 233.6 | 539.1 | 928.6 | 1158.5 | 1256.6 | – | NS (NS=Not Significant (p>0.05)) | NS (NS=Not Significant (p>0.05)) | NS (NS=Not Significant (p>0.05)) | * (*=0.01<p≦0.05) | * (*=0.01<p≦0.05) | NS (NS=Not Significant (p>0.05)) | NS (NS=Not Significant (p>0.05)) | NS (NS=Not Significant (p>0.05)) | NS (NS=Not Significant (p>0.05))
